# Data as given in US8680052B1, “Methods of treating, reducing the incidence of, and/or preventing ischemic events” (The Medicines Company, priority 2013, dated 2014).
# Like-named read-outs stand apart in the source and are kept apart here.
# System: patients with acute coronary syndromes undergoing PCI
# Details: for Stent thrombosis / All-cause mortality / IDR / MI / Mortality/MI/IDR / Mortality/Q-wave MI/IDR / Mortality/Q-wave MI/Stent thrombosis / Q-wave MI / All-cause mortality OR (95% CI) / IDR OR (95% CI) / MI OR (95% CI) / Mortality/MI/IDR OR (95% CI) / Mortality/Q-wave MI/IDR OR (95% CI) / Mortality/Q-wave MI/Stent thrombosis OR (95% CI) / Stent thrombosis OR (95% CI) / Q-wave MI OR (95% CI): 30 days; for All-cause mortality OR (95% CI) / IDR OR (95% CI) / MI OR (95% CI) / Mortality/MI/IDR OR (95% CI) / Mortality/Q-wave MI/IDR OR (95% CI) / Mortality/Q-wave MI/Stent thrombosis OR (95% CI) / Stent thrombosis OR (95% CI) / Q-wave MI OR (95% CI): Cangrelor vs Clopidogrel; for Angiographic complications (site reported): Abrupt vessel closure / Angiographic complications (site reported): Acute stent thrombosis / Angiographic complications (site reported): Need for urgent CABG / Angiographic complications (site reported): New thrombus or suspected thrombus / Angiographic complications (site reported): Threatened abrupt closure / Angiographic complications (site reported): Unsuccessful procedure: index PCI
# Experimental: Patients were eligible for enrollment if they had stable angina, unstable angina, or non-ST-segment elevation (NSTE) MI with obstructive coronary artery disease and were scheduled to undergo PCI.
# The infusion began within 30 minutes prior to PCI and continued for at least 2 hours or until the conclusion of the index procedure, whichever was longer. At the treating physician's discretion, the infusion could be continued for 4 hours.
# All patients received aspirin 75-325 mg per local site standards. Adjunctive anticoagulants (unfractionated heparin, low molecular weight heparin, bivalirudin, or fondaparinux) and the procedural use of glycoprotein IIb/IIIa inhibitors were determined by the treating physician.
# The primary efficacy endpoint was the 48-hour composite of all-cause mortality, MI, or ischemia-driven revascularization. Prespecified secondary efficacy endpoints included the composite of mortality or MI at 48 hours and 30 days; the composite of mortality, MI, or ischemia-driven revascularization at 30 days; the components of the composite endpoints at 48 hours and 30 days; stroke at 48 hours; abrupt closure, threatened abrupt closure, need for urgent coronary artery bypass grafting, or unsuccessful procedure during the index PCI; acute (24 hours) and 48 hours stent thrombosis; and all-cause mortality at 6 months and 1 year.
# Rates of MI and ischemia-driven revascularization up to 30 days following the index procedure were assessed. Ischemia-driven revascularization was defined as symptoms of myocardial ischemia leading to urgent (within 24 hours of the last episode of ischemia) revascularization, which must have occurred after the index procedure concluded (i.e., guidewire removal). New electrocardiographic changes, acute pulmonary edema, ventricular arrhythmias, or hemodynamic instability could also constitute evidence of ischemia.
# MI was defined by a new Q wave (duration >0.03 seconds) in two contiguous electrocardiographic leads or elevations in creatine kinase (CK) and CK-MB, including a rise of CK-MB≧3 times the local upper limit or normal and, when biomarkers were elevated prior to PCI, an additional 50% above baseline. One baseline troponin measurement was required for patients undergoing urgent PCI. Measurements of CK-MB were obtained at 2, 10, 17, and 24 hours post-PCI.
# The primary efficacy analysis was to be determined in the modified intent-to-treat (mITT) population, defined as all randomized patients (excluding STEMI cohort) who received at least one dose of study drug and underwent the index PCI. The safety population consisted of all randomized patients who received any study drug. Patients in the safety analyses were assigned to a treatment arm based on treatment received, not as randomized.
smiles,measurement,setting,value
"CSCCNc1nc(SCCC(F)(F)F)nc2c1ncn2[C@@H]1O[C@H](COP(=O)(O)OP(=O)(O)C(Cl)(Cl)P(=O)(O)O)[C@@H](O)[C@H]1O [Cangrelor, cangrelor]",Stent thrombosis,ITT,27 (0.6) no. (%)
same,All-cause mortality,ITT With STEMI,8 (1.7) no. (%)
same,IDR,ITT With STEMI,16 (3.4) no. (%)
same,MI,ITT With STEMI,20 (4.2) no. (%)
same,Mortality/MI/IDR,ITT With STEMI,36 (7.6) no. (%)
same,Mortality/Q-wave MI/IDR,ITT With STEMI,23 (4.9) no. (%)
same,Mortality/Q-wave MI/Stent thrombosis,ITT With STEMI,14 (3.0) no. (%)
same,Q-wave MI,ITT With STEMI,2 (0.4) no. (%)
same,Stent thrombosis,ITT With STEMI,7 (1.5) no. (%)
same,All-cause mortality OR (95% CI),ITT With STEMI,"0.524 (0.222, 1.235)"
same,IDR OR (95% CI),ITT With STEMI,"1.139 (0.557, 2.331)"
same,MI OR (95% CI),ITT With STEMI,"1.263 (0.653, 2.441)"
same,Mortality/MI/IDR OR (95% CI),ITT With STEMI,"0.929 (0.582, 1.480)"
same,Mortality/Q-wave MI/IDR OR (95% CI),ITT With STEMI,"0.778 (0.447, 1.355)"
same,Mortality/Q-wave MI/Stent thrombosis OR (95% CI),ITT With STEMI,"0.560 (0.289, 1.085)"
same,Stent thrombosis OR (95% CI),ITT With STEMI,"0.741 (0.280, 1.962)"
same,All-cause mortality,ITT Without STEMI,32 (0.8) no. (%)
same,IDR,ITT Without STEMI,46 (1.2) no. (%)
same,MI,ITT Without STEMI,298 (7.6) no. (%)
same,Mortality/MI/IDR,ITT Without STEMI,345 (8.8) no. (%)
same,Mortality/Q-wave MI/IDR,ITT Without STEMI,79 (2.0) no. (%)
same,Mortality/Q-wave MI/Stent thrombosis,ITT Without STEMI,54 (1.4) no. (%)
same,Q-wave MI,ITT Without STEMI,7 (0.2) no. (%)
same,Stent thrombosis,ITT Without STEMI,20 (0.5) no. (%)
same,All-cause mortality OR (95% CI),ITT Without STEMI,"1.027 (0.626, 1.687)"
same,IDR OR (95% CI),ITT Without STEMI,"0.846 (0.569, 1.257)"
same,MI OR (95% CI),ITT Without STEMI,"1.081 (0.912, 1.281)"
same,Mortality/MI/IDR OR (95% CI),ITT Without STEMI,"1.037 (0.886, 1.215)"
same,Mortality/Q-wave MI/IDR OR (95% CI),ITT Without STEMI,"0.891 (0.656, 1.211)"
same,Mortality/Q-wave MI/Stent thrombosis OR (95% CI),ITT Without STEMI,"0.959 (0.658, 1.397)"
same,Q-wave MI OR (95% CI),ITT Without STEMI,"0.463 (0.189, 1.138)"
same,Stent thrombosis OR (95% CI),ITT Without STEMI,"0.995 (0.535, 1.852)"
same,All-cause mortality OR (95% CI),ITT,"0.852 (0.558, 1.301)"
same,IDR OR (95% CI),ITT,"0.899 (0.637, 1.271)"
same,MI OR (95% CI),ITT,"1.095 (0.929, 1.291)"
same,Mortality/MI/IDR OR (95% CI),ITT,"1.026 (0.884, 1.192)"
same,Mortality/Q-wave MI/IDR OR (95% CI),ITT,"0.856 (0.655, 1.119)"
same,Mortality/Q-wave MI/Stent thrombosis OR (95% CI),ITT,"0.829 (0.599, 1.146)"
same,Q-wave MI OR (95% CI),ITT,"0.601 (0.263, 1.374)"
same,Stent thrombosis OR (95% CI),ITT,"0.902 (0.535, 1.519)"
same,All-cause mortality,MITT,40 (0.9) no. (%)
same,IDR,MITT,60 (1.4) no. (%)
same,MI,MITT,315 (7.3) no. (%)
same,Mortality/MI/IDR,MITT,376 (8.7) no. (%)
same,Mortality/Q-wave MI/IDR,MITT,100 (2.3) no. (%)
same,Mortality/Q-wave MI/Stent thrombosis,MITT,68 (1.6) no. (%)
same,Q-wave MI,MITT,9 (0.2) no. (%)
same,Stent thrombosis,MITT,27 (0.6) no. (%)
same,All-cause mortality,MITT With STEMI,8 (1.8) no. (%)
same,IDR,MITT With STEMI,16 (3.7) no. (%)
same,MI,MITT With STEMI,18 (4.1) no. (%)
same,Mortality/MI/IDR,MITT With STEMI,34 (7.8) no. (%)
same,Mortality/Q-wave MI/IDR,MITT With STEMI,23 (5.3) no. (%)
same,Mortality/Q-wave MI/Stent thrombosis,MITT With STEMI,14 (3.2) no. (%)
same,Q-wave MI,MITT With STEMI,2 (0.5) no. (%)
same,Stent thrombosis,MITT With STEMI,7 (1.6) no. (%)
same,All-cause mortality OR (95% CI),MITT With STEMI,"0.732 (0.292, 1.838)"
same,IDR OR (95% CI),MITT With STEMI,"1.165 (0.561, 2.416)"
same,MI OR (95% CI),MITT With STEMI,"1.146 (0.577, 2.278)"
same,Mortality/MI/IDR OR (95% CI),MITT With STEMI,"1.015 (0.619, 1.665)"
same,Mortality/Q-wave MI/IDR OR (95% CI),MITT With STEMI,"0.929 (0.519, 1.663)"
same,Mortality/Q-wave MI/Stent thrombosis OR (95% CI),MITT With STEMI,"0.665 (0.334, 1.325)"
same,Stent thrombosis OR (95% CI),MITT With STEMI,"0.705 (0.266, 1.869)"
same,All-cause mortality,MITT Without STEMI,32 (0.8) no. (%)
same,IDR,MITT Without STEMI,44 (1.1) no. (%)
same,MI,MITT Without STEMI,297 (7.7) no. (%)
same,Mortality/MI/IDR,MITT Without STEMI,342 (8.9) no. (%)
same,Mortality/Q-wave MI/IDR,MITT Without STEMI,77 (2.0) no. (%)
same,Mortality/Q-wave MI/Stent thrombosis,MITT Without STEMI,54 (1.4) no. (%)
same,Q-wave MI,MITT Without STEMI,7 (0.2) no. (%)
same,Stent thrombosis,MITT Without STEMI,20 (0.5) no. (%)
same,All-cause mortality OR (95% CI),MITT Without STEMI,"1.177 (0.704, 1.967)"
same,IDR OR (95% CI),MITT Without STEMI,"0.837 (0.559, 1.254)"
same,MI OR (95% CI),MITT Without STEMI,"1.072 (0.905, 1.272)"
same,Mortality/MI/IDR OR (95% CI),MITT Without STEMI,"1.044 (0.891, 1.224)"
same,Mortality/Q-wave MI/IDR OR (95% CI),MITT Without STEMI,"0.930 (0.679, 1.273)"
same,Mortality/Q-wave MI/Stent thrombosis OR (95% CI),MITT Without STEMI,"1.030 (0.702, 1.511)"
same,Q-wave MI OR (95% CI),MITT Without STEMI,"0.462 (0.188, 1.134)"
same,Stent thrombosis OR (95% CI),MITT Without STEMI,"0.991 (0.533, 1.846)"
same,All-cause mortality OR (95% CI),MITT,"1.046 (0.670, 1.635)"
same,IDR OR (95% CI),MITT,"0.902 (0.634, 1.283)"
same,MI OR (95% CI),MITT,"1.078 (0.914, 1.271)"
same,Mortality/MI/IDR OR (95% CI),MITT,"1.042 (0.895, 1.211)"
same,Mortality/Q-wave MI/IDR OR (95% CI),MITT,"0.927 (0.703, 1.222)"
same,Mortality/Q-wave MI/Stent thrombosis OR (95% CI),MITT,"0.924 (0.663, 1.290)"
same,Q-wave MI OR (95% CI),MITT,"0.595 (0.260, 1.362)"
same,Stent thrombosis OR (95% CI),MITT,"0.894 (0.530, 1.506)"
same,All-cause mortality,Safety population,40 (0.9) no. (%)
same,IDR,Safety population,60 (1.4) no. (%)
same,MI,Safety population,318 (7.4) no. (%)
same,Mortality/MI/IDR,Safety population,379 (8.8) no. (%)
same,Mortality/Q-wave MI/IDR,Safety population,100 (2.3) no. (%)
same,Mortality/Q-wave MI/Stent thrombosis,Safety population,68 (1.6) no. (%)
same,Q-wave MI,Safety population,9 (0.2) no. (%)
same,Stent thrombosis,Safety population,27 (0.6) no. (%)
same,All-cause mortality OR (95% CI),Safety population,"0.974 (0.629, 1.508)"
same,IDR OR (95% CI),Safety population,"0.893 (0.628, 1.268)"
same,MI OR (95% CI),Safety population,"1.090 (0.925, 1.285)"
same,Mortality/MI/IDR OR (95% CI),Safety population,"1.040 (0.895, 1.209)"
same,Mortality/Q-wave MI/IDR OR (95% CI),Safety population,"0.897 (0.682, 1.179)"
same,Mortality/Q-wave MI/Stent thrombosis OR (95% CI),Safety population,"0.892 (0.641, 1.240)"
same,Q-wave MI OR (95% CI),Safety population,"0.598 (0.262, 1.368)"
same,Stent thrombosis OR (95% CI),Safety population,"0.898 (0.533, 1.513)"
same,Angiographic complications (site reported): Abrupt vessel closure,ITT,24 (0.6)
same,Angiographic complications (site reported): Acute stent thrombosis,ITT,2 (0.0)
same,Angiographic complications (site reported): Need for urgent CABG,ITT,10 (0.2)
same,Angiographic complications (site reported): New thrombus or suspected thrombus,ITT,17 (0.4)
same,Angiographic complications (site reported): Threatened abrupt closure,ITT,13 (0.3)
same,Angiographic complications (site reported): Unsuccessful procedure,ITT,90 (2.1)
same,Angiographic complications (site reported): Abrupt vessel closure,ITT With STEMI,4 (0.9)
same,Angiographic complications (site reported): Acute stent thrombosis,ITT With STEMI,0 (0.0)
same,Angiographic complications (site reported): Need for urgent CABG,ITT With STEMI,2 (0.4)
same,Angiographic complications (site reported): New thrombus or suspected thrombus,ITT With STEMI,1 (0.2)
same,Angiographic complications (site reported): Threatened abrupt closure,ITT With STEMI,4 (0.9)
same,Angiographic complications (site reported): Unsuccessful procedure,ITT With STEMI,9 (2.0)
same,Angiographic complications (site reported): Abrupt vessel closure,ITT Without STEMI,20 (0.5)
same,Angiographic complications (site reported): Acute stent thrombosis,ITT Without STEMI,2 (0.1)
same,Angiographic complications (site reported): Need for urgent CABG,ITT Without STEMI,8 (0.2)
same,Angiographic complications (site reported): New thrombus or suspected thrombus,ITT Without STEMI,16 (0.4)
same,Angiographic complications (site reported): Threatened abrupt closure,ITT Without STEMI,9 (0.2)
same,Angiographic complications (site reported): Unsuccessful procedure,ITT Without STEMI,81 (2.1)
same,Angiographic complications (site reported): Abrupt vessel closure,MITT,24 (0.6)
same,Angiographic complications (site reported): Acute stent thrombosis,MITT,2 (0.0)
same,Angiographic complications (site reported): Need for urgent CABG,MITT,8 (0.2)
same,Angiographic complications (site reported): New thrombus or suspected thrombus,MITT,17 (0.4)
same,Angiographic complications (site reported): Threatened abrupt closure,MITT,13 (0.3)
same,Angiographic complications (site reported): Unsuccessful procedure,MITT,90 (2.1)
same,Angiographic complications (site reported): Abrupt vessel closure,MITT NSTEMI,20 (0.5)
same,Angiographic complications (site reported): Acute stent thrombosis,MITT NSTEMI,2 (0.1)
same,Angiographic complications (site reported): Need for urgent CABG,MITT NSTEMI,7 (0.2)
same,Angiographic complications (site reported): New thrombus or suspected thrombus,MITT NSTEMI,16 (0.4)
same,Angiographic complications (site reported): Threatened abrupt closure,MITT NSTEMI,9 (0.2)
same,Angiographic complications (site reported): Unsuccessful procedure,MITT NSTEMI,81 (2.1)
same,Angiographic complications (site reported): Abrupt vessel closure,Safety population,24 (0.6)
same,Angiographic complications (site reported): Acute stent thrombosis,Safety population,2 (0.0)
same,Angiographic complications (site reported): Need for urgent CABG,Safety population,8 (0.2)
same,Angiographic complications (site reported): New thrombus or suspected thrombus,Safety population,17 (0.4)
same,Angiographic complications (site reported): Threatened abrupt closure,Safety population,13 (0.3)
same,Angiographic complications (site reported): Unsuccessful procedure,Safety population,90 (2.1)
